Test results published in patent publication US5510332A, “Process to inhibit binding of the integrin α4 62 1 to VCAM-1 or fibronectin and linear peptides therefor” (priority 1994, dated 1996).
Where a SMILES comes first, the peptide text is derived from it. Where no end group is shown, it is not given here.

Tests used:
[1] = target: T1, binding of α4 β1 integrin to VCAM-1 (Homo sapiens, UniProt P05556+P13612); assay: Cell-protein assay: calcein-labelled Ramos cells binding to VCAM-mouse IgG fusion protein on magnetic beads; format: cell-based; conditions: for peptide concentration at which binding of α4 β1 to VCAM-1 is significantly inhibited: less than about 100, assay format not stated
T1 construct: endogenous in cells; host or cells: Ramos (human B-cell line) for endogenous α4β1; the VCAM-mouse IgG fusion was made in house, secreted from transfected COS cells and captured on goat anti-mouse IgG Dynal beads
Text: The VCAM-1 binding assays involved assessing the ability of cells that express α4 β1 to bind cells expressing VCAM (cell-cell assay) or to bind purified VCAM protein (cell-protein assay). The integrin-expressing cell types used in these assays included the human B-cell line, Ramos, and the human promyelocytic line, HL-60. The cell-cell assay was used to compare the relative potency of peptides at a single dose. The cell-protein assay was used to generate dose response curves and determine IC50 values.
An expression vector was designed such that a region of VCAM known to bind the integrin was-expressed as a fusion protein with mouse IgG. A cDNA containing the two N-terminal domains of human VCAM was generated by the polymerase chain reaction (PCR) from a full length VCAM cDNA. Similarly, a cDNA containing the hinge, CH2 and CH3 regions of mouse IgG2A was amplified by PCR from cDNA made from total RNA isolated from the hybridoma cell line 402C10. The VCAM cDNA was ligated to the mouse IgG cDNA and cloned into a mammalian expression vector. […] The media was collected and active protein was purified by immunoprecipitation using Dynal magnetic polystyrene beads coated with goat anti-mouse IgG. Following immunoprecipitation, the beads bound Ramos cells that expressed the integrin α4 β1.
Ramos cells were fluorescently labeled with calcein AM (Molecular Probes) and resuspended in 1 ml of binding buffer (Hanks' balanced salt solution, pH 7.4, 1.0 mM CaCl2, 1.0 mM MgCl2 and 1.0 mM MnCl2). The beads (10 μl, 4×10^6 beads/ml) were placed in wells of a 96-well microtiter dish with 10 μl of peptide at various concentrations. The beads were incubated with 10 μl of labeled cells (10^7 cells/ml) for 10 min at room temperature. Following immobilization of the beads onto the plastic with a magnet, unbound cells were removed by washing three times with binding buffer. The remaining bound cells were lysed in 50 mM Tris, pH 7.4, 5.0 mM EDTA, 1.0% NP-40 and quantitated by fluorimetry using a Millipore Cytofluor 2350 fluorimeter. Dose response curves were calculated and IC50 values determined. Peptides having the amino acid residue sequences of SEQ ID NOs:8-102 were tested for their ability to inhibit the binding of α4 β1 integrin to VCAM-1.

[2] = target: T2, binding of the integrin α4 β1 to VCAM (Homo sapiens, UniProt P05556+P13612); assay: Cell-cell assay: 35S-labelled Ramos cells binding to VCAM expressing CHO cells; format: cell-based; conditions: single concentration at which SEQ ID NO:9 gives approximately 50% inhibition of adhesion; SEQ ID NO:9 = 1.00; >2.00 indicates little or no inhibition of VCAM-α4 β1 binding
T2 construct: endogenous in cells; host or cells: Ramos (human B-cell line) for endogenous α4β1; CHO cells stably transfected with human VCAM cDNA for the counter-receptor
Text: The VCAM-1 binding assays involved assessing the ability of cells that express α4 β1 to bind cells expressing VCAM (cell-cell assay) or to bind purified VCAM protein (cell-protein assay). The integrin-expressing cell types used in these assays included the human B-cell line, Ramos, and the human promyelocytic line, HL-60. The cell-cell assay was used to compare the relative potency of peptides at a single dose. The cell-protein assay was used to generate dose response curves and determine IC50 values. A human VCAM cDNA was amplified by the polymerase chain reaction (PCR) from cDNA reverse transcribed from RNA isolated from human umbilical vein endothelial cells. The VCAM cDNA was ligated into a mammalian expression vector and electroporated into chinese hamster ovary (CHO) cells. Cells were grown in G418 selective media and clones expressing high levels of VCAM were selected by FACS analysis. VCAM expressing CHO cells and nontransfected CHO cells were plated in 48 well cluster dishes at a density of 50,000 cells/well 24 hour prior to assay. The dishes were washed with binding buffer (DMEM, 1% BSA, 1.0 mM MnCl2, 0.02% sodium azide, pH 7.4) immediately prior to assay. […] Unbound cells were removed by washing with binding buffer and the remaining bound cells were lysed with 50 mM Tris, pH 8.0, 150 mM NaCl, 1% SDS and transferred to scintillation vials for quantitation.

T1 sequence (P13612 34-1032): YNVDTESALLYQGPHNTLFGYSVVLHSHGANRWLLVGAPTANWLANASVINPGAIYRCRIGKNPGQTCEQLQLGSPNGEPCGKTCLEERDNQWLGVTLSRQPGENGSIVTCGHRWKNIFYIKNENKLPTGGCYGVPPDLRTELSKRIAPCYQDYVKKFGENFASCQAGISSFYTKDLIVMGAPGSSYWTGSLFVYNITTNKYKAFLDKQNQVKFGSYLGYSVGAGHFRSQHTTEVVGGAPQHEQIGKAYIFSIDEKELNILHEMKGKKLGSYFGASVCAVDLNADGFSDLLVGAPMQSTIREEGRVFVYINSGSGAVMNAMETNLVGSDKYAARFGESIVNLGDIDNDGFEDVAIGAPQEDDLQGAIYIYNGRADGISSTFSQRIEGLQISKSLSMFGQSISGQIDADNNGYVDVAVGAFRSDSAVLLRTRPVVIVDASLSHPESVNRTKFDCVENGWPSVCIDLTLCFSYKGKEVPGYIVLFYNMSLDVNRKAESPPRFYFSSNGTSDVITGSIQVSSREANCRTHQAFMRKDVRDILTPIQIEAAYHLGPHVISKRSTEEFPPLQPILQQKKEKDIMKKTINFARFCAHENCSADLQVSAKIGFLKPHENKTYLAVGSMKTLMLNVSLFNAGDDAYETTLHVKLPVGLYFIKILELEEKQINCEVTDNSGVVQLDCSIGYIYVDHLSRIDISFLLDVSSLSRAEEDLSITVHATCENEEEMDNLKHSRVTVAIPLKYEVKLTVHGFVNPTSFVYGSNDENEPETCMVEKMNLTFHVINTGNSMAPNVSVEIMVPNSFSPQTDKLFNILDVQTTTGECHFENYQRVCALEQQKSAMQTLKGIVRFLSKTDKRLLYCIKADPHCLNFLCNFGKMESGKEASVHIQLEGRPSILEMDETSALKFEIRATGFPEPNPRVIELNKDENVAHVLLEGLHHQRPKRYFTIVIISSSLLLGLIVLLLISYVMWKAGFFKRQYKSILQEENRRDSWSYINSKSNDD
T1 sequence (P05556 21-798): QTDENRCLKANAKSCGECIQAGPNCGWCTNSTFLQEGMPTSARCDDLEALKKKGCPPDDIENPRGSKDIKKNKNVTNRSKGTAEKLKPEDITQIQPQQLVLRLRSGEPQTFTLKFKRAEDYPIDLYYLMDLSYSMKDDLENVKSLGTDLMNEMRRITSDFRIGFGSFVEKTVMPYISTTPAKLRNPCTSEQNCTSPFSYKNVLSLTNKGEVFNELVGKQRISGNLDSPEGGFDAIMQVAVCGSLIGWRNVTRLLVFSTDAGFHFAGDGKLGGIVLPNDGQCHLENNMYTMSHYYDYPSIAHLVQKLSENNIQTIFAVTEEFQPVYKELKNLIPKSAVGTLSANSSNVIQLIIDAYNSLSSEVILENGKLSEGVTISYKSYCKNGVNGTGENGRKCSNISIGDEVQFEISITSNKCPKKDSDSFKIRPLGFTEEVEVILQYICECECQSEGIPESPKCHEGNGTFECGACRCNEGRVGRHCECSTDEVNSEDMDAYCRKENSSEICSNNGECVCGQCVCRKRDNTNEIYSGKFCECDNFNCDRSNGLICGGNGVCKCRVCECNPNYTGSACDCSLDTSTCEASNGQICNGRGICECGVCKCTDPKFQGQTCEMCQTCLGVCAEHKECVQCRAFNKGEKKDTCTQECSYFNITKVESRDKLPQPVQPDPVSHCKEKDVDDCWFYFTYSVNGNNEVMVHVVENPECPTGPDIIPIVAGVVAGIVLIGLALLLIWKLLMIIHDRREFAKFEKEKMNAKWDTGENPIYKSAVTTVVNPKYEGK
T2 sequence (P13612 34-1032): as the sequence (P13612 34-1032) above
T2 sequence (P05556 21-798): as the sequence (P05556 21-798) above

peptide concentration at which binding of α4 β1 to VCAM-1 is significantly inhibited [1]	relative quantity of adhered cells in relationship to peptide SEQ ID NO:9 [2]	IC50 ([1]; independent cell-protein based assays) [µM]	Compound
less than 100 μM	–	–	CC(C)C[C@H](NC(=O)[C@@H](N)Cc1ccccc1)C(=O)N[C@@H](CC(=O)O)C(=O)N[C@H](C(N)=O)C(C)C [SEQ ID NO:25, Phe-Leu-Asp-Val-amide] (H-FLDV-NH2)
less than 100 μM	–	–	CC(=O)N[C@@H](Cc1c[nH]c2ccccc12)C(=O)N[C@@H](CC(C)C)C(=O)N[C@@H](CC(=O)O)C(=O)N[C@H](C(N)=O)C(C)C [SEQ ID NO:11, Ac-Trp-Leu-Asp-Val-amide] (Ac-WLDV-NH2)
–	1.00	30	GPEWLDVP-NH2 [SEQ ID NO:9, Gly-Pro-Glu-Trp-Leu-Asp-Val-Pro-amide]
